Laboratory results from ChEMBL document CHEMBL5042471, “Development and Application of Subtype-Selective Fluorescent Antagonists for the Study of the Human Adenosine A1 Receptor in Living Cells” (J Med Chem, 2021).
The source made the active and inactive calls. No cut-off for these calls is given here.

Columns and labels:
[1] = target: T1, Adenosine receptor A1 (Homo sapiens) (UniProt P30542); experiment: Binding affinity to NanoLuc-human A1 adenosine receptor expressed in HEK293-A cells assessed as binding constant (kon) by NanoBRET competitive binding assay; assay type: cell-based; details: filed as antagonist
T1 sequence (whole entry): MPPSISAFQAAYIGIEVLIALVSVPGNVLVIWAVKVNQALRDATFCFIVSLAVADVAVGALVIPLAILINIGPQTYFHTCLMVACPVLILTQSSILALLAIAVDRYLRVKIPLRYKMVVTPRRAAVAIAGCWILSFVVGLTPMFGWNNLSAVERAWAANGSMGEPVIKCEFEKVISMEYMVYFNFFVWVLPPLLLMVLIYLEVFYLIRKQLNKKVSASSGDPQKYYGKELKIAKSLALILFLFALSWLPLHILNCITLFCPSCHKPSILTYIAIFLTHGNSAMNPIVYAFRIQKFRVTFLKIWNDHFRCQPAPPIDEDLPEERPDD

Adenosine receptor A1 [2] = target: T2, Adenosine receptor A1 (Homo sapiens, UniProt P30542); experiment: Binding affinity to NanoLuc human A1 adenosine receptor expressed in HEK293-A cells in prescence of SLV320 by NanoBRET competitive binding assay; assay type: cell-based
T2 sequence (P30542 whole entry): T1 sequence (whole entry)

Adenosine receptor A2a [3] = target: T3, Adenosine receptor A2a (Homo sapiens, UniProt P29274); experiment: Binding affinity to NLuc human A2A adenosine receptor expressed in HEK293-A cells in presence of 1 uM ZM241385 by NanoBRET binding assay; assay type: cell-based
[4] = target: T1, Adenosine receptor A1 (Homo sapiens); experiment: Binding affinity to NanoLuc-human A1 adenosine receptor expressed in HEK293-A cells assessed as binding constant (koff) by NanoBRET competitive binding assay; assay type: cell-based; details: filed as antagonist
[5] = target: T1, Adenosine receptor A1 (Homo sapiens); experiment: Antagonist activity at human A1 adenosine receptor expressed in Flp-In-CHO cells assessed as reduction in NECA-mediated inhibition of forskolin stimulated cAMP accumulation by cAMP assay; assay type: functional, cell-based; details: filed as antagonist
[6] = target: T1, Adenosine receptor A1 (Homo sapiens); experiment: Binding affinity to SNAP-tagged-human A1 adenosine receptor expressed in HEK293 cells assessed as red fluorescent spot in plasma membrane pre-incubated with 10 uM SLV320 by microscopy based TIRF assay; assay type: cell membranes
Adenosine receptor A1 [7] = target: T2, Adenosine receptor A1; experiment: Binding affinity to NanoLuc human A1 adenosine receptor expressed in HEK293-A cells in prescence of DPCPX by NanoBRET competitive binding assay; assay type: cell-based
Adenosine receptor A1 [8] = target: T2, Adenosine receptor A1; experiment: Binding affinity to NanoLuc-human A1 adenosine receptor expressed in HEK293-A cells assessed as kinetic dissociation constant by NanoBRET competitive binding assay; assay type: cell-based
Adenosine receptor A2b = target: T4, Adenosine receptor A2b (Homo sapiens, UniProt P29275); experiment: Binding affinity to NLuc human A2B adenosine receptor expressed in HEK293-A cells in presence of 1 uM PSB603 by NanoBRET binding assay; assay type: cell-based
T4 sequence (P29275 whole entry): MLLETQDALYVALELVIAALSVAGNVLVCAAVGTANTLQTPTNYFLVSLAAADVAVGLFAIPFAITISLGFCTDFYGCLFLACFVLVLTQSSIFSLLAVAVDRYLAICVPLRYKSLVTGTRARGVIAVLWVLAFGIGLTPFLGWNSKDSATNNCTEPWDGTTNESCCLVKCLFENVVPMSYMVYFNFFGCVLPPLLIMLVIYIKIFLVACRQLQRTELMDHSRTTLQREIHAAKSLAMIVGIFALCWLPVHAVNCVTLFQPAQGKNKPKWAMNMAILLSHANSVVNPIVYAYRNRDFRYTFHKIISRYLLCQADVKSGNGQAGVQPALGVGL

Adenosine receptor A1 [9] = target: T2, Adenosine receptor A1; experiment: Binding affinity to NLuc human A1 adenosine receptor expressed in HEK293-A cells in presence of 1 uM SLV320 by NanoBRET binding assay; assay type: cell-based
Adenosine receptor A1 [10] = target: T2, Adenosine receptor A1; experiment: Displacement of [3H]DPCPX from human A1 adenosine receptor expressed in Flp-In-CHO cells by radioligand competitive binding assay; assay type: cell-based
Adenosine receptor A3 [11] = target: T5, Adenosine receptor A3 (Homo sapiens, UniProt P0DMS8); experiment: Binding affinity to NLuc human A3 adenosine receptor expressed in HEK293-A cells in presence of 1 uM MRS1220 by NanoBRET binding assay; assay type: cell-based
T5 sequence (P0DMS8 whole entry): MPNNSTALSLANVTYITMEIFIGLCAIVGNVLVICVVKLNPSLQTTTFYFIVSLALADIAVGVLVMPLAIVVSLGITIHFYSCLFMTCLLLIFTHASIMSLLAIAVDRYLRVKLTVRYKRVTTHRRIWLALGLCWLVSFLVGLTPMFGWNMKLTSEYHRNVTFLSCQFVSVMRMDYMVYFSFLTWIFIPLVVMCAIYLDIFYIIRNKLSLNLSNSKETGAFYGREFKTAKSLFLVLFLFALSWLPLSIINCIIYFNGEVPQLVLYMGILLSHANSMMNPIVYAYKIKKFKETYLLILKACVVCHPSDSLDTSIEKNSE

Adenosine receptor A1 [12] = target: T2, Adenosine receptor A1; experiment: Binding affinity to NanoLuc human A1 adenosine receptor expressed in HEK293-A cells in prescence of NECA by NanoBRET competitive binding assay; assay type: cell-based
[13] = target: T1, Adenosine receptor A1 (Homo sapiens); experiment: Binding affinity to SNAP-tagged-human A1 adenosine receptor expressed in HEK293 cells at 50 nM after 30 mins in presence of SLV320 by confocal microscopy method; assay type: cell-based
[14] = target: T1, Adenosine receptor A1 (Homo sapiens); experiment: Binding affinity to NLuc human A1 adenosine receptor expressed in HEK293-A cells assessed as maximal binding capacity in presence of 1 uM SLV320 by NanoBRET binding assay; assay type: cell-based; details: filed as antagonist
Adenosine receptor A1 [15] = target: T6, Adenosine receptor A1 (Rattus norvegicus, UniProt P25099); experiment: Binding affinity to N-terminal NLuc tagged rat A1 adenosine receptor expressed in Flp-In-CHO cells by competitive binding assay; assay type: cell-based
T6 sequence (P25099 whole entry): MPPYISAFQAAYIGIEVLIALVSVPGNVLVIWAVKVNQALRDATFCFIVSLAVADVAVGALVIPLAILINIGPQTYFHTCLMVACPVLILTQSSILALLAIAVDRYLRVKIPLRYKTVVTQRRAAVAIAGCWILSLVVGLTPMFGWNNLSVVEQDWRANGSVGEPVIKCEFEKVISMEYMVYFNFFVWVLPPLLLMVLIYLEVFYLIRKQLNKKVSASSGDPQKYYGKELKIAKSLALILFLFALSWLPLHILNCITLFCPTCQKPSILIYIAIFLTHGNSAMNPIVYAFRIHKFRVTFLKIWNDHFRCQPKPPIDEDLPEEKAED

Adenosine receptor A1 [16] = target: T2, Adenosine receptor A1; experiment: Binding affinity to N-terminal NLuc tagged human A1 adenosine receptor expressed in Flp-In-CHO cells by competitive binding assay; assay type: cell-based
[17] = target: T7, Adenosine receptor A3 (Homo sapiens) (UniProt P0DMS8); experiment: Binding affinity to NLuc human A3 adenosine receptor expressed in HEK293-A cells assessed as maximal binding capacity in presence of 1 uM MRS1220 by NanoBRET binding assay; assay type: cell-based; details: filed as antagonist
T7 sequence (whole entry): T5 sequence (P0DMS8 whole entry)

[18] = target: T8, Adenosine receptor A2b (Homo sapiens) (UniProt P29275); experiment: Binding affinity to NLuc human A2B adenosine receptor expressed in HEK293-A cells assessed as maximal binding capacity in presence of 1 uM PSB603 by NanoBRET binding assay; assay type: cell-based; details: filed as antagonist
T8 sequence (whole entry): T4 sequence (P29275 whole entry)

Adenosine receptor A2a [19] = target: T3, Adenosine receptor A2a; experiment: Binding affinity to NLuc human A2A adenosine receptor expressed in HEK293-A cells assessed as maximal binding capacity in presence of 1 uM ZM241385 by NanoBRET binding assay; assay type: cell-based; details: filed as antagonist
[20] = target: T1, Adenosine receptor A1 (Homo sapiens); experiment: Binding affinity to SNAP-tagged-human A1 adenosine receptor expressed in HEK293 cells at 10 nM after 30 mins in presence of SLV320 by confocal microscopy method; assay type: cell-based
Adenosine receptor A3 [21] = target: T5, Adenosine receptor A3; experiment: Agonist activity at A3 adenosine receptor (unknown origin); assay type: functional

T3 sequence (P29274 whole entry): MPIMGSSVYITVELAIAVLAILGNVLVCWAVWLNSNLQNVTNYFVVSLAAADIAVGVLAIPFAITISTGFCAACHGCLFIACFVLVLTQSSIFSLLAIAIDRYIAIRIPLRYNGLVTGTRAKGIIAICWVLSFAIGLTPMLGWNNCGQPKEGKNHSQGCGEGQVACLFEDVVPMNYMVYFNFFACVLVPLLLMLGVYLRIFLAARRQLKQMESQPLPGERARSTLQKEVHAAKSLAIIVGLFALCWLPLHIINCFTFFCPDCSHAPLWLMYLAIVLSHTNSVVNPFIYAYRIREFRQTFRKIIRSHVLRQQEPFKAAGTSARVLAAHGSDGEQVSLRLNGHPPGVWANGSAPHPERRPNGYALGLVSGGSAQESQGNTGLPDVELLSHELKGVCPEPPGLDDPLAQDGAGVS

## CCCn1c(=O)c2[nH]c(C34CCC(C(=O)NCCNC(=O)CCNC(=O)CCNC(=O)CCCCC[N+]5=C(/C=C/C=C/C=C6/N(C)c7ccc(S(=O)(=O)O)cc7C6(C)C)C(C)(C)c6cc(S(=O)(=O)[O-])ccc65)(CC3)CC4)nc2n(CCC)c1=O
[1]
  K: 0.86 10^6/M/min
Adenosine receptor A1 [2]
  Ki: 0.000708 µM
Adenosine receptor A2a [3]
  Kd: > 1 µM
[4]
  K: 0.117 min⁻¹
[5]
  pKb: 7.12
[6]
  Activity: inactive
Adenosine receptor A1 [7]
  Ki: 0.00741 µM
Adenosine receptor A1 [8]
  Kd: 0.138 µM
Adenosine receptor A2b
  Kd: > 1 µM
Adenosine receptor A1 [9]
  Kd: 0.0447 µM
Adenosine receptor A1 [10]
  Ki: 0.2 µM
Adenosine receptor A3 [11]
  Kd: > 1 µM
Adenosine receptor A1 [12]
  Ki: 0.398 µM
[13]
  Activity: inactive
[14]
  Bmax: 0.03

## CCCn1c(=O)c2[nH]c(C34CCC(C(=O)NCCC(=O)NCCNC(=O)COCCNC(=O)OC(C)(C)C)(CC3)CC4)nc2n(CCC)c1=O
Adenosine receptor A1 [10]
  Ki: 0.0112 µM

## CCCn1c(=O)c2[nH]c(C34CCC(C(=O)NCCCNC(=O)COCCOCCNC(=O)OC(C)(C)C)(CC3)CC4)nc2n(CCC)c1=O
Adenosine receptor A1 [10]
  Ki: 0.0224 µM

## CCCn1c(=O)c2[nH]c(C34CC5CC(CC(C5)C3)C4)nc2n(CCCNC(=O)c2ccc(C(=O)NCCNC(=O)CCCCCNC(=O)COc3ccc(/C=C/C4=[N+]5C(=Cc6ccc(-c7cccs7)n6[B-]5(F)F)C=C4)cc3)cc2)c1=O
Adenosine receptor A1 [10]
  Ki: 0.00589 µM

## CCCn1c(=O)c2[nH]c(-c3ccc(OCC(=O)NCCNC(=O)CCNC(=O)CCCCNC(=O)CCCCNC(=O)COc4ccc(/C=C/C5=[N+]6C(=Cc7ccc(-c8cccs8)n7[B-]6(F)F)C=C5)cc4)cc3)nc2n(CCC)c1=O
Adenosine receptor A1 [15]
  Kd: 0.0355 µM
Adenosine receptor A1 [16]
  Kd: 0.0339 µM

## CCCn1c(=O)c2[nH]c(C34CC5CC(CC(C5)C3)C4)nc2n(CCCNC(=O)c2ccc(C(=O)NCCNC(=O)CCCCC[N+]3=C(/C=C/C=C/C=C4/N(C)c5ccc(S(=O)(=O)O)cc5C4(C)C)C(C)(C)c4cc(S(=O)(=O)[O-])ccc43)cc2)c1=O
Adenosine receptor A1 [10]
  Ki: > 10 µM

## CCCn1c(=O)c2[nH]c(C34CC5CC(CC(C5)C3)C4)nc2n(CCCNC(=O)c2ccc(C(=O)NCCNC(=O)CCNC(=O)CCCCCNC(=O)COc3ccc(/C=C/C4=[N+]5C(=Cc6ccc(-c7cccs7)n6[B-]5(F)F)C=C4)cc3)cc2)c1=O
[1]
  K: 3.6 10^6/M/min
Adenosine receptor A1 [2]
  Ki: 0.00141 µM
Adenosine receptor A2a [3]
  Kd: 0.0501 µM
[4]
  K: 0.046 min⁻¹
[5]
  pKb: 8.72
Adenosine receptor A1 [7]
  Ki: 0.0209 µM
[17]
  Bmax: 0.001
Adenosine receptor A1 [8]
  Kd: 0.0132 µM
Adenosine receptor A2b
  Kd: 0.055 µM
[18]
  Bmax: 0.004
Adenosine receptor A1 [9]
  Kd: 0.00316 µM
Adenosine receptor A1 [10]
  Ki: 0.00977 µM
Adenosine receptor A3 [11]
  Kd: 0.0589 µM
Adenosine receptor A2a [19]
  Bmax: 0.003
Adenosine receptor A1 [12]
  Ki: 1.1 µM
[14]
  Bmax: 0.019
[20]
  Activity: inactive

## CCCn1c(=O)c2[nH]c(C34CC5CC(CC(C5)C3)C4)nc2n(CCCNC(=O)c2ccc(C(=O)NCCNC(=O)CCNC(=O)CCCCC[N+]3=C(/C=C/C=C/C=C4/N(C)c5ccc(S(=O)(=O)O)cc5C4(C)C)C(C)(C)c4cc(S(=O)(=O)[O-])ccc43)cc2)c1=O
Adenosine receptor A1 [10]
  Ki: > 10 µM

## CCCn1c(=O)c2[nH]c(C34CCC(C(=O)NCCNC(=O)CCCCCNC(=O)COc5ccc(/C=C/C6=[N+]7C(=Cc8ccc(-c9cccs9)n8[B-]7(F)F)C=C6)cc5)(CC3)CC4)nc2n(CCC)c1=O
Adenosine receptor A1 [10]
  Ki: 0.0204 µM

## CCNC(=O)[C@H]1O[C@@H](n2cnc3c(NCCCCNC(=O)CNC(=O)[C@@H](C)NC(=O)[C@@H](C)NC(=O)CCCCCNC(=O)COc4ccc(/C=C/C5=[N+]6C(=Cc7ccc(-c8cccs8)n7[B-]6(F)F)C=C5)cc4)ncnc32)[C@H](O)[C@@H]1O
Adenosine receptor A3 [21]
  EC50: 0.00331 µM
